PubChem BioAssay AID1918933 (Molecular Pharmacology Branch, DTP, NCI, 2023)

Test system: 186277-243-T-J2-PDC complex spheroid viability
Assay: Anticancer human tumor 186277-243-T-J2-PDC patient-derived colon adenocarcinoma cell line growth inhibition
Conditions: for IC50: curve of first compound; for viability, T/C: stronger effect = lower value
Method in brief: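 Complex spheroids of tumor cells with HUVEC and human MSCs, exposed to iadademstat combined with other agents. Each agent tested in half-log steps from near clinical Cmax (else 10 microM top), DMSO ≤0.25%.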

[1] = second compound 0.1 µM, first compound 0.0316 µM
[2] = second compound 0.1 µM, first compound 0.1 µM
[3] = second compound 0.1 µM, first compound 0.316 µM
[4] = second compound 0.1 µM, first compound 1 µM
[5] = second compound 0.1 µM, first compound 3.16 µM
[6] = second compound 0.1 µM, first compound 10 µM
[7] = second compound 0.316 µM, first compound 0.0316 µM
[8] = second compound 0.316 µM, first compound 0.1 µM
[9] = second compound 0.316 µM, first compound 0.316 µM
[10] = second compound 0.316 µM, first compound 1 µM
[11] = second compound 0.316 µM, first compound 3.16 µM
[12] = second compound 0.316 µM, first compound 10 µM
[13] = second compound 1 µM, first compound 0.0316 µM
[14] = second compound 1 µM, first compound 0.1 µM
[15] = second compound 1 µM, first compound 0.316 µM
[16] = second compound 1 µM, first compound 1 µM
[17] = second compound 1 µM, first compound 3.16 µM
[18] = second compound 1 µM, first compound 10 µM
[19] = second compound 3.16 µM, first compound 0.0316 µM
[20] = second compound 3.16 µM, first compound 0.1 µM
[21] = second compound 3.16 µM, first compound 0.316 µM
[22] = second compound 3.16 µM, first compound 1 µM
[23] = second compound 3.16 µM, first compound 3.16 µM
[24] = second compound 3.16 µM, first compound 10 µM
[25] = second compound 10 µM, first compound 0.0316 µM
[26] = second compound 10 µM, first compound 0.1 µM
[27] = second compound 10 µM, first compound 0.316 µM
[28] = second compound 10 µM, first compound 1 µM
[29] = second compound 10 µM, first compound 3.16 µM
[30] = second compound 10 µM, first compound 10 µM
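Note: 7 day exposure to compounds.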
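Throughout, for viability, T/C: 100% = DMSO vehicle control viability.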

Row | Structure (SMILES) | IC50 (second compound 0.1 µM) | IC50 (second compound 0.316 µM) | IC50 (second compound 1 µM) | IC50 (second compound 3.16 µM) | IC50 (second compound 10 µM) | viability, T/C [1] | viability, T/C [2] | viability, T/C [3] | viability, T/C [4] | viability, T/C [5] | viability, T/C [6] | viability, T/C [7] | viability, T/C [8] | viability, T/C [9] | viability, T/C [10] | viability, T/C [11] | viability, T/C [12] | viability, T/C [13] | viability, T/C [14] | viability, T/C [15] | also measured
1 | CC1(C)CCC(CN2CCN(c3ccc(C(=O)NS(=O)(=O)c4ccc(NCC5CCOCC5)c([N+](=O)[O-])c4)c(Oc4cnc5[nH]ccc5c4)c3)CC2)=C(c2ccc(Cl)cc2)C1 + NC1CCC(NC2CC2c2ccccc2)CC1 | 4.91 µM | 4.97 µM | 5.12 µM | 5.04 µM | 4.57 µM | 92% | 114% | 101% | 97.7% | 73.5% | 12% | 106% | 117% | 99.4% | 109% | 74.9% | 11.5% | 100% | 105% | 106% | viability, T/C [16]: 101%; viability, T/C [17]: 77.9%; viability, T/C [18]: 11.3%; viability, T/C [19]: 107%; viability, T/C [20]: 107%; viability, T/C [21]: 115%; viability, T/C [22]: 95.8%; viability, T/C [23]: 79.2%; viability, T/C [24]: 8.73%; viability, T/C [25]: 98.9%; viability, T/C [26]: 107%; viability, T/C [27]: 96.6%; viability, T/C [28]: 97.6%; viability, T/C [29]: 69.1%; viability, T/C [30]: 9.39%
2 | CC1COCCN1c1cc(C2(S(C)(=N)=O)CC2)nc(-c2ccnc3[nH]ccc23)n1 (stereo not given) + NC1CCC(NC2CC2c2ccccc2)CC1 | 0.438 µM | 0.457 µM | 0.44 µM | 0.517 µM | 0.533 µM | 123% | 108% | 63% | 17.9% | 10.8% | 6.11% | 117% | 115% | 65.1% | 17.7% | 11% | 7.27% | 118% | 112% | 62.8% | viability, T/C [16]: 17.5%; viability, T/C [17]: 11.1%; viability, T/C [18]: 6.95%; viability, T/C [19]: 122%; viability, T/C [20]: 123%; viability, T/C [21]: 71.3%; viability, T/C [22]: 21.8%; viability, T/C [23]: 11.5%; viability, T/C [24]: 7.92%; viability, T/C [25]: 115%; viability, T/C [26]: 123%; viability, T/C [27]: 71%; viability, T/C [28]: 26.1%; viability, T/C [29]: 16.7%; viability, T/C [30]: 9.23%
